Source: patent publication US11890288B2, “Sulfonamide or sulfinamide compound having effect of inducing BRD4 protein degradation and pharmaceutical use thereof” (MITSUBISHI TANABE PHARMA CORPORATION, priority 2020, dated 2024)

What was measured:
BRD4 protein [1] = biological target: T1, BRD4 protein (Homo sapiens (Human), UniProt O60885); test: BRD4 protein degradation inducing action in LNCaP cells (immunofluorescence, 6 hr); assay type: cell-based; conditions: anti-BRD4 fluorescence intensity
In short: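 LNCaP cells in 10% FBS/RPMI1640 exposed to compound for 6 hr, fixed, permeabilized and immunostained for BRD4 with Alexa Fluor 546 secondary; fluorescence (ex 560, em 572 nm) read by imaging. DC50 = concentration giving 50% of untreated signal, interpolated linearly between the two bracketing points.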

MDA-MB-436 w/o2 cells = test: Cytotoxic action on MDA-MB-436 w/o2 cells that acquired resistance to conventional BRD4 degraders (WST-8, 96 hr); assay type: cell-based, human
Experimental: (§1) The cytotoxic action of the compound of the present invention against cancer cells that acquired resistance to conventional BRD4 protein degradation inducing agents was evaluated in vitro. In this experiment, ARV-771 (Proc Natl Acad Sci USA. volume 113, pages 7124-7129 (28 Jun. 2016)) and MZ1 (ACS Chem Biol. Volume 10, pages 1770-1777 (21 Aug. 2015)), in which a ligand for VHL and BRD4 protein inhibitor are linked, were used as a conventional BRD4 protein degradation inducing agent serving as a comparison control. Human breast cancer MDA-MB-436 cells and MDA-MB-436 cells that acquired resistance to conventional BRD4 protein degradation inducing agents (MDA-MB-436 w/o2 cells) were suspended in 10% FBS/RPMI1640, seeded in a 96 well plate and cultured at 5% CO2, 37° C. overnight. A test compound dissolved in DMSO was diluted with 10% FBS/RPMI1640 and added and the cells were further cultured for 96 hr. After culturing, the viable cell number was measured using a cell number measurement WST-8 kit (Kishida Chemical Co., Ltd.). As a control, the measurement was performed under conditions free of the test compound. The cytotoxic activity of the compound of the present invention against each cell is shown in IC50 value in Table 4. The IC50 value is a concentration of the compound showing 50% cell survival rate when the cell survival rate thereof under compound untreated condition is 100%. It was calculated from the straight line connecting the cell survival rate at two points enclosing the 50% cell survival rate and the compound concentration. In addition, the tolerance (fold) was calculated by dividing the IC50 value in MDA-MB-436 w/o2 cells by the IC50 value in MDA-MB-436 cells.

BRD4 protein [2] = biological target: T1, BRD4 protein; test: Inhibitory action on binding of BRD4 protein and acetylated histone H4 (TR-FRET); conditions: BRD4-1 (GST) and acetylated histone H4 peptide, 3 hr
Experimental: The inhibitory action of the compound of the present invention on the binding of BRD4 protein and a ligand thereof (acetylated histone H4) was evaluated by the time-resolved fluorescence resonance energy transfer (TR-FRET) method using EPIgeneous™ Binding Domain Kit A (Cisbio), BRD4-1 (GST) (Reaction Biology Corp) and [Lys(Ac)5/8/12/16]-Histone H4(1-21)-GGK (Biotin) (Eurogentec). In this experiment, (+)-JQ1 (Nature volume 468, pages 1067-1073 (23 Dec. 2010)) known to have an inhibitory activity on the binding of BRD4 protein and acetylated histone H4 therefor was used as a positive control drug. A test compound dissolved in DMSO was diluted with attached Diluent Buffer, added to a 384 well white plate, and BRD4-1 (GST) and [Lys(Ac)5/8/12/16]-Histone H4(1-21)-GGK (Biotin) were further added. Thereafter, Streptavidin-d2 conjugate and Anti-GST-Eu^3+ Cryptate Conjugate were added and the cells were incubated at room temperature for 3 hr. The binding amount of the BRD4 protein and acetylated histone H4 was measured as the fluorescence intensity (excitation: 314 nm/emission: 620 nm and excitation: 314 nm/emission: 665 nm). […] It was calculated from the straight line connecting the degradation rate at two points enclosing the 50% fluorescence intensity and the compound concentration.

[3] = system: Human breast cancer MDA-MB-436 cells; test: Cytotoxic action on MDA-MB-436 cells (WST-8, 96 hr); assay type: cell-based; conditions: Homo sapiens
Experimental: as §1

[4] = system: human prostate cancer LNCaP cells; test: Cytotoxic action on LNCaP cells (WST-8, 96 hr); assay type: cell-based; conditions: 96 hr culture
In short: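 Viability read by WST-8 after 96 hr compound exposure of cells seeded overnight in 10% FBS/RPMI1640 (37° C, 5% CO2). Survival normalised to compound-free wells as 100%; IC50 obtained by straight-line interpolation between the two concentrations flanking 50% survival.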

DC50 (BRD4 protein [1]): 83 pM | IC50 (BRD4 protein [2]): 5700 pM
SMILES: COC(=O)C[C@@H]1N=C(c2ccc(-c3ccc(C(=O)NCCc4ccc(S(=O)(=O)Nc5ccc(C)c6c(C#N)c[nH]c56)cc4)cc3)cc2)c2c(sc(C)c2C)-n2c(C)nnc21 [Example 11, methyl [(6S)-4-{4′-[(2-{4-[(3-cyano-4-methyl-1H-indol-7-yl)sulfamoyl]phenyl}ethyl)carbamoyl][1,1′-biphenyl]-4-yl}-2,3,9-trimethyl-6H-thieno[3,2-f][1,2,4]triazolo[4,3-a][1,4]diazepin-6-yl]acetate]
IC50 (MDA-MB-436 w/o2 cells; Homo sapiens, MDA-MB-436 w/o2 cells, 96 hr): 310 pM | resistance (MDA-MB-436 w/o2 cells; IC50 in MDA-MB-436 w/o2 cells divided by IC50 in MDA-MB-436 cells): 1.2 fold | IC50 [3]: 270 pM | IC50 [4]: 74 pM
